Starred links: 1 amine or outer side, 2 acyl side, 3 side chain; linkers in the order of their positions; H or OH if unused. Non-standard residues stand in square brackets, D forms with d. Residues, ends and D or L forms follow the SMILES beside them. *: point of attachment. Phe(4-CF3) = N[C@@H](Cc1ccc(C(F)(F)F)cc1)C(=O)O; NMePhe(3-Cl) = CN[C@@H](Cc1cccc(Cl)c1)C(=O)O; NMeF = CN[C@@H](Cc1ccccc1)C(=O)O; NMeGABA = CN(CCCC(=O)[*:2])[*:1]; NMeI = CC[C@H](C)[C@H](NC)C(=O)O; NMeβAla = CN(CCC(=O)[*:2])[*:1]; NMeL = CN[C@@H](CC(C)C)C(=O)O; NMeA = CN[C@@H](C)C(=O)O; dNMeA = CN[C@H](C)C(=O)O; β3hA = C[C@H](N)CC(=O)O; Sar = CNCC(=O)O; tBu = CC(C)(C)*
Key:
[1] = PAMPA (parallel artificial membrane permeability assay); format: in vitro ADME; details: PAMPA; membrane permeation rate (Pe); 50 mM MOPSO buffer pH 6.5 with 5.0% glycocholic acid, 37° C., 18 hours; read-out: iPAMPA Pe
Procedure, shortened: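 Artificial membrane was 10% (w/v) egg lecithin plus 0.5% (w/v) cholesterol in dodecane on a PVDF filter. A 10 mM DMSO stock was added at 0.5% (v/v) to donor buffer (50 mM MOPSO, pH 6.5, 5.0% glycocholic acid). After 18 h at 37 °C, LC/MS or LC/UV gave donor and acceptor levels for Pe.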

[2] = Metabolic stability in human hepatic microsome; format: in vitro ADME; details: microsomes, pH 7.4; human hepatic microsome, NADPH(+); read-out: CL NADPH(+)

| SMILES | Papp at 18 hours, 50 µM [1] [×10⁻⁶ cm/s] | microsomal CLint at 1 uM [2] [µL/min/mg] |
| --- | --- | --- |
| CC(C)C[C@H]1C(=O)N[C@@H](COC(C)(C)C)C(=O)N[C@@H](C)CC(=O)N[C@H](C)C(=O)N(C)[C@@H](C)C(=O)N(C)[C@@H](Cc2ccccc2)C(=O)N(C)[C@@H](CC(C)C)C(=O)N[C@@H]([C@@H](C)O)C(=O)N(C)[C@@H](C)C(=O)N1C [DP-787] (cyclo([NMeA][NMeF][NMeL]T[NMeA][NMeL]S(tBu)[β3hA][dA])) | 29 | 33 |
| CC(C)C[C@H]1C(=O)N(C)[C@@H](Cc2ccccc2)C(=O)N(C)[C@@H](CC(C)C)C(=O)N[C@@H](C)CC(=O)N[C@H](C(C)C)C(=O)N[C@@H](C)C(=O)N[C@@H]([C@@H](C)O)C(=O)N(C)[C@@H](C)C(=O)N[C@@H](Cc2ccccc2)C(=O)N1C [DP-788] (cyclo(AT[NMeA]F[NMeL][NMeF][NMeL][β3hA][dV])) | 49 | 158 |
| CC[C@H](C)[C@H]1C(=O)N[C@@H](C)CC(=O)N(C)[C@H](C)C(=O)N(C)[C@@H](Cc2ccccc2)C(=O)N(C)[C@@H](CC(C)C)C(=O)N[C@@H]([C@@H](C)O)C(=O)N(C)CC(=O)N[C@@H](COC(C)(C)C)C(=O)N(C)[C@@H](CC(C)C)C(=O)N1C [DP-789] (cyclo([NMeF][NMeL]T[Sar]S(tBu)[NMeL][NMeI][β3hA][dNMeA])) | 35 | 113 |
| CC(C)C[C@@H]1NC(=O)[C@@H](C(C)C)NC(=O)C[C@H](C)NC(=O)[C@H](CC(C)C)N(C)C(=O)[C@H](Cc2ccccc2)N(C)C(=O)[C@H](CC(C)C)N(C)C(=O)[C@H](Cc2ccc(C(F)(F)F)cc2)NC(=O)[C@H](C)N(C)C(=O)[C@H]([C@@H](C)O)NC1=O [DP-790] (cyclo(LT[NMeA][Phe(4-CF3)][NMeL][NMeF][NMeL][β3hA][dV])) | 56 | 40 |
| CC(C)C[C@@H]1NC(=O)[C@H](Cc2ccccc2)N(C)C(=O)[C@H](C)N(C)C(=O)C[C@H](C)NC(=O)[C@H]([C@@H](C)O)NC(=O)[C@H](CC(C)C)N(C)C(=O)[C@H](Cc2ccccc2)NC(=O)[C@H](CC(C)C)N(C)C(=O)[C@H](CC(C)C)N(C)C1=O [DP-791] (cyclo(F[NMeL]T[β3hA][NMeA][NMeF]L[NMeL][NMeL])) | 41 | 794 |
| CC(C)C[C@@H]1NC(=O)[C@@H](C(C)C)NC(=O)C[C@H](C)NC(=O)[C@H](CC(C)C)N(C)C(=O)[C@H](Cc2cccc(Cl)c2)N(C)C(=O)[C@H](CC(C)C)N(C)C(=O)[C@H](Cc2ccc(C(F)(F)F)cc2)NC(=O)[C@H](C)N(C)C(=O)[C@H]([C@@H](C)O)NC1=O [DP-792] (cyclo(LT[NMeA][Phe(4-CF3)][NMeL][NMePhe(3-Cl)][NMeL][β3hA][dV])) | 33 | 16 |
| CC(C)C[C@@H]1NC(=O)[C@H](Cc2ccccc2)N(C)C(=O)[C@H](CC(C)C)N(C)C(=O)[C@@H](C)N(C)C(=O)C[C@H](C)NC(=O)[C@H](CC(C)C)N(C)C(=O)[C@H](Cc2ccccc2)N(C)C(=O)[C@H]([C@@H](C)O)NC(=O)[C@H](Cc2ccccc2)N(C)C1=O [DP-793] (cyclo(L[NMeF]T[NMeF][NMeL][β3hA][dNMeA][NMeL][NMeF])) | 53 | 218 |
| CC(C)C[C@H]1C(=O)NCC(=O)N[C@@H](C)CC(=O)N(C)CCC(=O)N[C@@H]([C@@H](C)O)C(=O)N(C)[C@@H](C)C(=O)N[C@@H](COC(C)(C)C)C(=O)N(C)[C@@H](Cc2ccccc2)C(=O)N1C [DP-794] (cyclo(G[β3hA][NMeβAla]T[NMeA]S(tBu)[NMeF][NMeL])) | 3.7 | 43 |
| CC(C)C[C@H]1C(=O)N(C)[C@@H](CC(C)C)C(=O)N[C@@H](C)CC(=O)N(C)CCCC(=O)N(C)[C@@H](Cc2ccccc2)C(=O)N[C@@H]([C@@H](C)O)C(=O)N(C)CC(=O)N[C@@H](COC(C)(C)C)C(=O)N1C [DP-795] (cyclo([NMeF]T[Sar]S(tBu)[NMeL][NMeL][β3hA][NMeGABA])) | 19 | 143 |
| CC(C)C[C@H]1C(=O)N(C)[C@@H](Cc2ccccc2)C(=O)N[C@@H](C)CC(=O)N[C@H](C(C)C)C(=O)N[C@@H](C)C(=O)N[C@@H]([C@@H](C)O)C(=O)N(C)[C@@H](C)C(=O)N[C@@H](Cc2ccccc2)C(=O)N1C [DP-796] (cyclo(AT[NMeA]F[NMeL][NMeF][β3hA][dV])) | 20 | 66 |
| CC(C)C[C@H]1C(=O)N[C@@H](C)CC(=O)N(C)[C@H](C)C(=O)N(C)[C@@H](Cc2ccccc2)C(=O)N(C)[C@@H](CC(C)C)C(=O)N[C@@H]([C@@H](C)O)C(=O)N(C)CC(=O)N[C@@H](COC(C)(C)C)C(=O)N1C [DP-797] (cyclo([NMeF][NMeL]T[Sar]S(tBu)[NMeL][β3hA][dNMeA])) | 26 | 91 |
| CC(C)C[C@@H]1NC(=O)[C@H](C)NC(=O)C[C@H](C)NC(=O)[C@H](Cc2ccccc2)N(C)C(=O)[C@H](CC(C)C)N(C)C(=O)[C@H](C)NC(=O)[C@H](Cc2ccccc2)N(C)C(=O)[C@H](CC(C)C)N(C)C1=O [DP-798] (cyclo(AL[NMeL][NMeF]A[NMeL][NMeF][β3hA])) | 69 | 1540 |
| CC[C@H](C)[C@H]1C(=O)N[C@@H](C)CC(=O)N(C)[C@H](C)C(=O)N(C)[C@@H](Cc2cccc(Cl)c2)C(=O)N(C)[C@@H](CC(C)C)C(=O)N[C@@H]([C@@H](C)O)C(=O)N(C)CC(=O)N[C@@H](COC(C)(C)C)C(=O)N(C)[C@@H](CC(C)C)C(=O)N1C [DP-799] (cyclo([NMeI][β3hA][dNMeA][NMePhe(3-Cl)][NMeL]T[Sar]S(tBu)[NMeL])) | 32 | 222 |
| CC[C@H](C)[C@H]1C(=O)N[C@@H](C)CC(=O)N(C)[C@H](C)C(=O)N(C)[C@@H](CC(C)C)C(=O)N(C)[C@@H](CC(C)C)C(=O)N[C@@H]([C@@H](C)O)C(=O)N(C)CC(=O)N[C@@H](COC(C)(C)C)C(=O)N(C)[C@@H](CC(C)C)C(=O)N1C [DP-800] (cyclo([NMeI][β3hA][dNMeA][NMeL][NMeL]T[Sar]S(tBu)[NMeL])) | 25 | 58 |
| CC(C)C[C@H]1C(=O)N[C@@H](COC(C)(C)C)C(=O)N[C@@H](C)CC(=O)N[C@H](C(C)C)C(=O)N(C)[C@@H](Cc2cccc(Cl)c2)C(=O)N(C)[C@@H](C)C(=O)N(C)[C@@H](CC(C)C)C(=O)N[C@@H]([C@@H](C)O)C(=O)N(C)[C@@H](C)C(=O)N1C [DP-801] (cyclo([NMeA][NMeL]S(tBu)[β3hA][dV][NMePhe(3-Cl)][NMeA][NMeL]T)) | 60 | 133 |
| CC(C)C[C@H]1C(=O)N(C)[C@@H](C)C(=O)N(C)[C@@H](CC(C)C)C(=O)N[C@@H]([C@@H](C)O)C(=O)N(C)[C@@H](C)C(=O)N(C)[C@@H](CC(C)C)C(=O)N[C@@H](COC(C)(C)C)C(=O)N[C@@H](C)CC(=O)N[C@H](C(C)C)C(=O)N1C [DP-802] (cyclo([NMeA][NMeL]S(tBu)[β3hA][dV][NMeL][NMeA][NMeL]T)) | 29 | 77 |
| CC[C@H](C)[C@H]1C(=O)N[C@@H](COC(C)(C)C)C(=O)N[C@@H](C)CC(=O)N(C)[C@@H](C)C(=O)N(C)[C@@H](Cc2cccc(Cl)c2)C(=O)N(C)CC(=O)N(C)[C@@H](CC(C)C)C(=O)N[C@@H]([C@@H](C)O)C(=O)N(C)[C@@H](C)C(=O)N(C)[C@@H](CC(C)C)C(=O)N1C [DP-803] (cyclo([NMeA][NMeL][NMeI]S(tBu)[β3hA][NMeA][NMePhe(3-Cl)][Sar][NMeL]T)) | 28 | 85 |
| CC[C@H](C)[C@H]1C(=O)N[C@@H](COC(C)(C)C)C(=O)N[C@@H](C)CC(=O)N(C)[C@@H](C)C(=O)N(C)[C@@H](CC(C)C)C(=O)N(C)CC(=O)N(C)[C@@H](CC(C)C)C(=O)N[C@@H]([C@@H](C)O)C(=O)N(C)[C@@H](C)C(=O)N(C)[C@@H](CC(C)C)C(=O)N1C [DP-804] (cyclo([NMeA][NMeL][NMeI]S(tBu)[β3hA][NMeA][NMeL][Sar][NMeL]T)) | 29 | 40 |
| CC[C@H](C)[C@@H]1NC(=O)[C@H](CC(C)C)N(C)C(=O)[C@H](C)NC(=O)CN(C)C(=O)[C@H](Cc2ccc(C(F)(F)F)cc2)NC(=O)[C@H]([C@@H](C)O)NC(=O)[C@H](CC(C)C)N(C)C(=O)CCN(C)C(=O)C[C@H](C)NC(=O)[C@H](CC(C)C)N(C)C(=O)[C@H](CC(C)C)N(C)C1=O [DP-805] (cyclo(A[NMeL]I[NMeL][NMeL][β3hA][NMeβAla][NMeL]T[Phe(4-CF3)][Sar])) | 41 | 169 |
| CC[C@H](C)[C@@H]1NC(=O)[C@H](CC(C)C)N(C)C(=O)[C@H](C)NC(=O)CN(C)C(=O)[C@H](CC(C)C)NC(=O)[C@H]([C@@H](C)O)NC(=O)[C@H](CC(C)C)N(C)C(=O)CCN(C)C(=O)C[C@H](C)NC(=O)[C@H](CC(C)C)N(C)C(=O)[C@H](CC(C)C)N(C)C1=O [DP-806] (cyclo(A[NMeL]I[NMeL][NMeL][β3hA][NMeβAla][NMeL]TL[Sar])) | 27 | 88 |

Reference: patent publication US9409952B2, “Peptide-compound cyclization method” (Chugai Seiyaku Kabushiki Kaisha, priority 2011, dated 2016)
